Experimental data reported in US20210378993A1 (Nacuity Pharmaceuticals, Inc., priority 2020, published 2021).
Where “and” joins values, the source holds several entries; their conditions need not be identical. Equal values may be shown once.

What was measured:
[1] = test system: human cystinotic fibroblasts (GM00008); test: Screening of cystine-depleting activity in human cystinotic cell-based model; conditions: 50 μM
Protocol: A specialized in vitro human cystinotic cell-based model was used for determining cystine content (Omran et al., 2011c). […]
The cells were recovered from storage at −80° C. and suspended in 100 μl […] N-ethyl malimide prepared in phosphate buffer (pH 7.6) followed by sonication for 10 seconds which was repeated 3 times with 20 second cooling intervals on ice. The solution was centrifuged at 800 G for 10 min at 4° C. (Biofuge primo R Heraeus centrifuge). To this cell supernatant (40 μl) was added 4 μl of 4M NaBH4 in 7:3 0.1 M NaOH/DMSO. After 5 min incubation at room temperature, 800 μl of sodium acetate buffer (pH 4.7) was added. A 5 μl volume of the diluted solution was added to 100 μl of 0.6mg/ml solution of Papain-SSCH3 in a 96 well plate and incubated for one hour at room temperature. A 100 μl volume of 4.9 mM L-benzoylarginine p-nitroanilide (L-BAPNA) solution in sodium acetate buffer (pH 4.0) was added to each well of the 96 well plate, gently mixed and incubated for further one hour at room temperature. Absorption at 410 nm was measured and the cysteine levels were calculated by comparison to known cysteine standard.
The protein concentration in every sample was measured according to Bradford method. Briefly, 200 μl of Bradford reagent was added to 5 μl of cell supernatant in each well of a 96 well plate and incubated for 5 minutes at room temperature and the absorption at 595 nm was measured. The protein concentration was calculated using a range of concentrations of bovine serum albumin as a standard. The cysteine levels were determined following normalization to μM cysteine per mg of protein.

rabbit eyes = test: Ophthalmic tolerability, daily Draize scores after topical ocular administration; type: in vivo; conditions: rabbits, 1% in prototype vehicle, per animal and eye; for Daily Draize Scores for Chemosis, Day 1 / Daily Draize Scores for Discharge, Day 1 / Daily Draize Scores for Hyperemia, Day 1 / Daily Draize Scores for Chemosis, Day 2 / Daily Draize Scores for Discharge, Day 2 / Daily Draize Scores for Hyperemia, Day 2 / Daily Draize Scores for Chemosis, Day 3 / Daily Draize Scores for Discharge, Day 3 / Daily Draize Scores for Hyperemia, Day 3 / Daily Draize Scores for Chemosis, Day 4 / Daily Draize Scores for Discharge, Day 4 / Daily Draize Scores for Hyperemia, Day 4 / Daily Draize Scores for Chemosis, Day 5 / Daily Draize Scores for Discharge, Day 5 / Daily Draize Scores for Hyperemia, Day 5 / Daily Draize Scores for Chemosis, Day 6 / Daily Draize Scores for Hyperemia, Day 6 / Daily Draize Scores for Discharge, Day 6: bilateral topical four times a day; for Daily Draize Scores for Chemosis, Day 7 / Daily Draize Scores for Hyperemia, Day 7 / Daily Draize Scores for Discharge, Day 7 / Daily Draize Scores for Chemosis, Day B / Daily Draize Scores for Discharge, Day B / Daily Draize Scores for Hyperemia, Day B: bilateral topical; for Daily Draize Scores for Chemosis, Day 7 / Daily Draize Scores for Hyperemia, Day 7 / Daily Draize Scores for Discharge, Day 7: once on Day 7; for Daily Draize Scores for Chemosis, Day B / Daily Draize Scores for Discharge, Day B / Daily Draize Scores for Hyperemia, Day B: (baseline)
Protocol: To simulate topical ocular exposure to an ophthalmic insert containing AGENT, prototype ophthalmic formulations were prepared containing either 1% NPI-001, 1% diNACA, 1% NAC or vehicle and tested to evaluate ocular tolerability. Three rabbits per group were administered 1% NPI-001, 1% di-NAC, 1% NAC in a prototype vehicle, via bilateral topical administration four times a day for 6 days, and once on Day 7.

[2] = test system: human cystinotic fibroblasts (GM00008); test: Cytotoxicity (MTT cell viability) in cystinotic fibroblast cell culture; type: cell-based; conditions: for cell viability (cytotoxicity) versus no treatment: 25, 50 or 75 μM, 48 and 72 hours (FIGS. 1 and 2), MTT; for increase of human cystinotic cell viability compared to cysteamine at the same concentration: 25 μM
Protocol: Appropriate concentrations of the NACA and diNACA were selected and incubated along with human cystinotic fibroblasts in media. […] Media was then removed, and cells were incubated in 0.5mg/ml MTT (3-(4,5-dimethylthiazol-2-yl)-2,5-diphenyltetrazolium bromide) reconstituted in media. A colorimetric assay used reduction of the yellow tetrazolium salt (MTT) to a purple formazan salt in order to measure cellular metabolic activity as a proxy for cell viability. Treated cells were incubated in MTT for 4 hours at 37° C., after which time intracellular purple formazan salt crystals were visible under a microscope. MTT solution was then removed, and DMSO was added to each well in order to lyse cells and dissolve the salt crystals. After 1 hour incubation at 37° C., absorbance was measured on a multiwell plate reader (Biotek FL6000) at 570 nm, and percentage cell viability calculated.

[3] = NACA in aqueous humor after topical ocular administration; type: in vivo; conditions: rabbit eyes, 1% topical ocular
Protocol: The thiol moiety of NAC, NACA, diNACA and their respective internal standards oxidizes quickly in plasma through formation of disulfides. In order to determine total NAC and total NACA levels in plasma, tris(2-carboxyethyl)phosphine (TCEP) is added during the extraction to reduce disulfide bonds (King et al., 2019). Ammonium bicarbonate is added to control sample pH near neutral, as TCEP will otherwise acidify the aliquoted samples and hinder derivatization. The free analyte is then derivatized to a stable thioether using 2-chloro-1-methylpyridinium iodide (CMPI). N-acetyl-L-cysteine is used as the reference standard. The assay would not discern the enantiomer, N-acetyl-D-cysteine, if present. A sample volume of 25.0 μL is aliquoted into a 1.2 mL 96-well plate to which is added, in sequence, 25.0 μL internal standard solution (1000 ng/mL NAC-D3 and 1000 ng/mL NACA-D3 in water), 50.0 μL of ammonium bicarbonate (100 mM), 5.0 μL CMPI (60 mM in water), and 5.0 μL of TCEP (60 mM in water). Samples are allowed to react for 30 minutes. To precipitate proteins, 500 μL of acetonitrile is then added to all samples. The plate is covered and the mixtures are shaken and centrifuged. […]
Samples were analyzed on a Waters Acquity liquid chromatograph interfaced with a Thermo Scientific TSQ Vantage triple quadrupole mass spectrometer with ESI ionization (King et al., 2019). […]

[4] = eyedrops, stored at −20° C. until dispensed, kept refrigerated once opened; cited from earlier work
[5] = target: T1, glutamate cysteine ligase (GCL, EC 6.3.2.2) (Homo sapiens, UniProt P48506); conditions: cited from earlier work
T1 sequence (P48506 1-637): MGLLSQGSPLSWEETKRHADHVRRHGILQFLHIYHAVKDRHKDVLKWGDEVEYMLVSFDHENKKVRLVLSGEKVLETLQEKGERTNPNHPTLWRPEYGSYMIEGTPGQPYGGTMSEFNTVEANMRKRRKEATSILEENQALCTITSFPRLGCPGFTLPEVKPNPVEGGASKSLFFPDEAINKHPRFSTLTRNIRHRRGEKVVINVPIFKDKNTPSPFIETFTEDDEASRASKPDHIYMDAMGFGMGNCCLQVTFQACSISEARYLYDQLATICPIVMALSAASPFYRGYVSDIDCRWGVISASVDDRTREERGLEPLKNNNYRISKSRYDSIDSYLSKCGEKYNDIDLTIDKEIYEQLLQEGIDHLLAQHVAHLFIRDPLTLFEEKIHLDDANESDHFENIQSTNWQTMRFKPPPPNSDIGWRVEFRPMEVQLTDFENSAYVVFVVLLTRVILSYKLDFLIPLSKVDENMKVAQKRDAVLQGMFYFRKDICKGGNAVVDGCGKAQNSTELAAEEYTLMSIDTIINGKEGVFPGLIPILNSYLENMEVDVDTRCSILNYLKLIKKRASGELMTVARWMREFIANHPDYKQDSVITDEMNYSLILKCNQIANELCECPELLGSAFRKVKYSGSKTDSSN
T1 sequence (P48507 1-274 partner): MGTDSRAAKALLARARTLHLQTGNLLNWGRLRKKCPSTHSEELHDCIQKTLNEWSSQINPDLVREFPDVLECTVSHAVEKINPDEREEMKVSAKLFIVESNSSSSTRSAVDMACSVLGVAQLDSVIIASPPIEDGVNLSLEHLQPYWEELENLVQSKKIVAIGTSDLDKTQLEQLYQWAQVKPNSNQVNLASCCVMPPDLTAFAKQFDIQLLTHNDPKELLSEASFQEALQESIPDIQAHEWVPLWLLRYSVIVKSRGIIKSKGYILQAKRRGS

SMILES	relative cystine concentration as percent of control, comparison with cysteamine ([1]; 6 hours (FIG. 3))	relative cystine concentration as percent of control, comparison with cysteamine ([1]; 24 hours (FIG. 4))	relative cystine concentration as percent of control, comparison with cysteamine ([1]; 48 hours (FIG. 5))	Daily Draize Scores for Chemosis, Day 1 (rabbit eyes)	Daily Draize Scores for Discharge, Day 1 (rabbit eyes)	Daily Draize Scores for Hyperemia, Day 1 (rabbit eyes)	Daily Draize Scores for Chemosis, Day 2 (rabbit eyes)	Daily Draize Scores for Discharge, Day 2 (rabbit eyes)	Daily Draize Scores for Hyperemia, Day 2 (rabbit eyes)	Daily Draize Scores for Chemosis, Day 3 (rabbit eyes)	Daily Draize Scores for Discharge, Day 3 (rabbit eyes)	Daily Draize Scores for Hyperemia, Day 3 (rabbit eyes)	Daily Draize Scores for Chemosis, Day 4 (rabbit eyes)	Daily Draize Scores for Discharge, Day 4 (rabbit eyes)	Daily Draize Scores for Hyperemia, Day 4 (rabbit eyes)	Daily Draize Scores for Chemosis, Day 5 (rabbit eyes)	Daily Draize Scores for Discharge, Day 5 (rabbit eyes)	Daily Draize Scores for Hyperemia, Day 5 (rabbit eyes)	Daily Draize Scores for Chemosis, Day 6 (rabbit eyes)	cell viability (cytotoxicity) versus no treatment [2]	other results
CC(=O)NC(CS)C(N)=O (stereo not shown)	statistically superior to cysteamine	statistically superior	statistically superior to cysteamine	0	0	0	0	0	0	0	0	0	0	0	0	0	0	0	0	increased cell viability	relative cystine concentration as percent of control, comparison with cysteamine ([1]; 72 hours (FIG. 6)): superior to cysteamine; Daily Draize Scores for Hyperemia, Day 6 (rabbit eyes): 0; Daily Draize Scores for Discharge, Day 6 (rabbit eyes; listed as NPI-001): 0.5 and 0 (5×); Daily Draize Scores for Chemosis, Day 7 (rabbit eyes): 0; Daily Draize Scores for Hyperemia, Day 7 (rabbit eyes): 0; Daily Draize Scores for Discharge, Day 7 (rabbit eyes; listed as NPI-001): 0 (4×) and 0.5 (2×); Daily Draize Scores for Chemosis, Day B (rabbit eyes): 0; Daily Draize Scores for Discharge, Day B (rabbit eyes): 0; Daily Draize Scores for Hyperemia, Day B (rabbit eyes): 0; increase of human cystinotic cell viability compared to cysteamine at the same concentrations ([2]; all concentrations (25, 50, 75 μM), 72 hours (FIG. 2)): statistically superior to cysteamine; NACA in aqueous humor [3]: detectable
NCCS [cysteamine, reference compound]																				increased cell viability	shelf life [4]: 1 week
N[C@@H](CCC(=O)N[C@@H](CS)C(=O)NCC(=O)O)C(=O)O [GSH, c-L-glutamyl-L-cysteinyl-glycine]																					Ki ([5]; read-out: Ki, nonallosteric competitive inhibition of GCL): 2300 µM
N[C@@H](CS)C(=O)O [cysteine, L-cysteine]																					Km [5]: 100 to 300 µM
CC(=O)NC(CSSCC(NC(C)=O)C(N)=O)C(N)=O [diNACA, (2R,2R′)-3,3′-disulfanediyl bis(2-acetamidopropanamide)]	statistically superior to cysteamine	superior to cysteamine	statistically superior to cysteamine	0	0	0	0	0	0	0	0	0	0	0 (3×) and 1 (2×) and 0.5	0	0	0	0	0	increased cell viability	depletion of cystine compared to control ([1]; 72 hours (FIG. 6)): 20%; Daily Draize Scores for Discharge, Day 6 (rabbit eyes): 0 (4×) and 0.5 (2×); Daily Draize Scores for Hyperemia, Day 6 (rabbit eyes): 0; Daily Draize Scores for Chemosis, Day 7 (rabbit eyes): 0; Daily Draize Scores for Discharge, Day 7 (rabbit eyes): 0 (5×) and 0.5; Daily Draize Scores for Hyperemia, Day 7 (rabbit eyes): 0; Daily Draize Scores for Chemosis, Day B (rabbit eyes): 0; Daily Draize Scores for Discharge, Day B (rabbit eyes): 0; Daily Draize Scores for Hyperemia, Day B (rabbit eyes): 0; increase of human cystinotic cell viability compared to cysteamine at the same concentration ([2]; 48 hours (FIG. 1)): statistically superior to cysteamine; increase of human cystinotic cell viability compared to cysteamine at the same concentration ([2]; 72 hours (FIG. 2)): statistically superior to cysteamine; NACA in aqueous humor [3]: detectable
